Calls of active or inactive are those of the source. The calls are words filed in the database; no cut-off is given here.
Key:
[1] = target: Acetylcholinesterase (Electrophorus electricus) (UniProt O42275); experiment: Reversible inhibition of electric eel AChE at 92 mM after 5 to 60 mins followed by addition of acetylthiocholine iodide by Ellman's method
[2] = Metal chelating activity assessed as Fe3+/compound complex formation incubated with electric eel AChE for 1 and 24 hrs measured over 60 mins by TLC analysis; format: physicochemical
[3] = target: Acetylcholinesterase (Electrophorus electricus) (UniProt O42275); experiment: Reversible inhibition of electric eel AChE incubated for 1 and 24 hrs by ESI-MS and TLC method
Acetylcholinesterase = Acetylcholinesterase (Electrophorus electricus, UniProt O42275)
Chain of Acetylcholinesterase (O42275 whole entry): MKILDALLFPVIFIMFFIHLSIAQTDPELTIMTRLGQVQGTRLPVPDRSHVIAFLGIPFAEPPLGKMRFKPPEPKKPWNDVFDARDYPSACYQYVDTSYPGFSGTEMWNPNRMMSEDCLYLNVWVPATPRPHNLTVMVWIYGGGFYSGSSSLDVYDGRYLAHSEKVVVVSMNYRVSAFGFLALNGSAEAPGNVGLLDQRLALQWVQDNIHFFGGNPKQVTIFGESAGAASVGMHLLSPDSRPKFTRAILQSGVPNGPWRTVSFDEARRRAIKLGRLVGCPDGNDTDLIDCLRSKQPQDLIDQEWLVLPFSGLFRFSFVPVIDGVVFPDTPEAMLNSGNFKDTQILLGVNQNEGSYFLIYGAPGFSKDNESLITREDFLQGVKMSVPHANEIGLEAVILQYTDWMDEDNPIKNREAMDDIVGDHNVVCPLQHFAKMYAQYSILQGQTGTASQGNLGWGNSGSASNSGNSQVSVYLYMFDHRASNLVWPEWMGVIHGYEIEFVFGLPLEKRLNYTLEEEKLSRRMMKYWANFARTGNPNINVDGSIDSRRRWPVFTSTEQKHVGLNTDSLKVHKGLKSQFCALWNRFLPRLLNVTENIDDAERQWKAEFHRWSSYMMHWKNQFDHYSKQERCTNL
Description: Inhibition of electric eel AChE using acetylthiocholine iodide as substrate by Ellman's method

[4] = target: Acetylcholinesterase (Electrophorus electricus) (UniProt O42275); experiment: Reversible inhibition of electric eel AChE at 554 mM after 5 to 60 mins followed by addition of acetylthiocholine iodide by Ellman's method

Chain of Acetylcholinesterase (Electrophorus electricus) (O42275 24-633 limits assumed): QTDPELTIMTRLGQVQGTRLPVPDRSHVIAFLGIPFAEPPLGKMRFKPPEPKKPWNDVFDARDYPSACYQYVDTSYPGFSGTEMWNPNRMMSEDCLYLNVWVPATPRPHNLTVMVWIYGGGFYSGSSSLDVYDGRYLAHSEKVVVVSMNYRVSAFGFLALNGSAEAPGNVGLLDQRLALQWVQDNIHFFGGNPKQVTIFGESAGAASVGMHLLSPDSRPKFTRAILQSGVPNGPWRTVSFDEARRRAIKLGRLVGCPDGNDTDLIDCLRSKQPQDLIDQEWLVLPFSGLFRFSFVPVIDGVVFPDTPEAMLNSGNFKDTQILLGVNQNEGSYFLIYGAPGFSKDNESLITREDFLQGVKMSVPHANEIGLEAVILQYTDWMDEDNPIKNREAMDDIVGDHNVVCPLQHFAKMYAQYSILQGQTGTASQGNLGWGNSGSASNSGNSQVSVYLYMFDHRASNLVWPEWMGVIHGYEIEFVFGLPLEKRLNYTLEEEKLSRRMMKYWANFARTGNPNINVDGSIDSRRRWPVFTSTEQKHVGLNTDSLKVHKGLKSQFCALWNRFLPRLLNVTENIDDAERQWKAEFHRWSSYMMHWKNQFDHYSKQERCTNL

Compound | inhibition [1] | Activity [2] | inhibition [3] | IC50 (Acetylcholinesterase) [µM] | inhibition [4]
Cc1c(O)c(=O)ccn1-c1ccc(OC(=O)N(C)C)cc1 | Active | Active | Active | 348 | 
Cc1c(OCc2ccc(OC(=O)N(C)C)cc2)c(=O)ccn1-c1ccccc1 |  |  | Active | 217 | Active
Cc1ccc(OC(=O)N(C)C)cc1 [P-TOLYL DIMETHYLCARBAMATE] |  |  |  | 1280 | 

Reference: ChEMBL document CHEMBL3779880, “In silico to in vitro screening of hydroxypyridinones as acetylcholinesterase inhibitors” (Bioorg Med Chem Lett, 2016)
